The record followed here is patent publication US20240400591A1 (Jacobio Pharmaceuticals Co., Ltd., priority 2021, published 2024).

Assay [1] deals with T1, His-p53 Y220C (94-294) protein (Homo sapiens, UniProt P04637, Y220C).
T1 construct: His-p53 Y220C (94-294) protein
As to the kind of experiment: In vitro DNA binding assay (HTRF). To be noted: % activation normalized to 2 μM Ref-1a high control. It is filed as biochemical. On the technique in general: Time-resolved FRET reads energy transfer from a long-lived donor to a nearby acceptor.

The test system of another assay is NUGC3 (P53 Y220C). As to the kind of experiment: Cell viability assay (CellTiter-Glo, 6 days), NUGC3. It counts as cell-based. To be noted: cell viability, 6 days, CellTiter-Glo, read-out: NUGC3 (P53 Y220C) IC50. The method, then: (§1) Cells were collected and counted. A desired number of cells was seeded into 96-well microplate and cultured in 37° C. cell incubator overnight. Compounds dissolved in cell culture medium were added into cell plate and cultured for 6 days. After balancing CellTiter-Glo reagent and cells at room temperature for 30 min, equal volume of CellTiter-Glo reagents was added to assay plate and shaken for 2 min for cell lysis. The cells were balanced at room temperature for 10 minutes and Luminescence signal was read using Envision. The percent of cell viability for compounds treated wells were normalized between High control and low control. Wells containing cell culture medium and same percentage DMSO sewved as Low control. Wells containing cells and same percentage DMSO sewved as High control. Cell viability (%)=(Luminescence readoutCompound treated−Luminescence readoutLow control)/(Luminescence readoutHigh control−Luminescence readoutLow control)*100%. Then the data were analyzed either by fitting a 4-parameter logistic model or by Excel to calculate IC50 values. And the IC50 was the concentration at 50% Cell viability on the curve.
A general note: ATP-based viability assays read luminescence as a measure of living cells.

For a further assay, the system named is NUGC4 (P53 WT). Description: Cell viability assay (CellTiter-Glo, 6 days), NUGC4. It counts as cell-based. To be noted: cell viability, 6 days, CellTiter-Glo, read-out: NUGC4 (P53 WT) IC50. The method, then:
as §1

The test system of assay [2] is NUGC-3_P53_Luc single clonal cell line (p53 Y220C). Description: Reporter gene assay (p53 RE luciferase). It counts as cell-based. To be noted: Homo sapiens, luciferase reporter, 6 hours, normalized to Ref-1a (10 μM) high control, read-out: p53(Y220C)_NUGC-3 EC50. How it is done:
NUGC-3_P53_Luc single clonal cell line was established using pGL4.38[luc2P/p53 RE/Hygro] Vector (E365A, promega). NUGC-3_P53-Luc single clonal cells were cultured in 37° C. cell incubator before use. NUGC-3-P53-Luc cells were collected and washed twice with PBS to remove phenol red and then resuspended in medium to a proper concentration. Tested compound dilutions were transferred into 384 well assay plates (PerkinElmer). A desired number of cells was seeded into the assay plate and cultured for 6 hours at 37° C. cell incubator. Britelite plus Luciferase Assay Reagent were added into each well and the luminescence value was recorded on Envision. The percent of activity value of compounds treated wells was normalized between high control and low control. Wells containing cells and Ref-1a (10 μM) sewved as high control, and wells containing cells and same percentage of DMSO sewved as low control. Activity value (%)=(Luminescence readoutCompound treated−Luminescence readoutLow control)/(Luminescence readoutHigh control−Luminescence readoutLow control)*100%. Then the data were analyzed either by fitting a 4-parameter logistic model or by Excel to calculate EC50 values and the EC50 was the concentration at 50% Activity on the curve.
Background: A reporter such as luciferase makes a cellular process visible.

Where two headings read alike, the source gives them in different places.

`COc1nc(P(C)(C)=O)ccc1NCC#Cc1sc2c(N[C@@H]3CCN(C)C[C@@H]3F)cccc2c1CC(F)(F)F` [Example 153, (5-((3-(7-(((3S,4R)-3-fluoro-1-methylpiperidin-4-yl)amino)-3-(2,2,2-trifluoroethyl)benzo[b]thiophen-2-yl)prop-2-yn-1-yl)amino)-6-methoxypyridin-2-yl)dimethylphosphine oxide]: the EC50 was 31 nM in assay [1] and 100 nM in assay [2] (NUGC-3). The IC50 in the assay on NUGC3 (P53 Y220C) (Homo sapiens, NUGC-3, 144 h) stood at 370 nM; with NUGC4 (P53 WT) (Homo sapiens, NUGC-4, 144 h), 4070 nM.

Regarding `CNC(=O)c1ccc(NCC#Cc2cc3c(N[C@@H]4CCN(C)C[C@@H]4F)cccc3n2CC(F)(F)F)c(OC)c1` [Example 57, 4-((3-(4-(((Z)-3-fluoro-1-methylpiperidin-4-yl)amino)-1-(2,2,2-trifluoroethyl)-1H-indol-2-yl)prop-2-yn-1-yl)amino)-3-methoxy-N-methylbenzamide], the EC50 stood at 29 nM in assay [1] and 80 nM in assay [2] (NUGC-3). Further, the IC50 with NUGC3 (P53 Y220C) (Homo sapiens, NUGC-3, 144 h) was found to be 1110 nM; in the assay on NUGC4 (P53 WT) (Homo sapiens, NUGC-4, 144 h), 12000 nM.

In assay [1], `COc1cc(P(C)(C)=O)ccc1NCC#Cc1sc2c(NC3CCN(C)CC3C(F)(F)F)cccc2c1CC(F)(F)F` (racemic) [Example 169, (3-methoxy-4-((3-(7-(((Z)-1-methyl-3-(trifluoromethyl)piperidin-4-yl)amino)-3-(2,2,2-trifluoroethyl)benzo[b]thiophen-2-yl)prop-2-yn-1-yl)amino)phenyl)dimethylphosphine oxide] displayed an EC50 of 70 nM. The IC50 with NUGC3 (P53 Y220C) (Homo sapiens, NUGC-3, 144 h) stood at 1630 nM; in the assay with NUGC4 (P53 WT) (Homo sapiens, NUGC-4, 144 h), 4330 nM.

Take `CN1CCC(Nc2cccc3c(CC(F)(F)F)c(C#CCNc4ccc(P(C)(C)=O)cc4OC4CC4)sc23)[C@@H](F)C1` (stereo in doubt) [Example 106, (3-cyclopropoxy-4-((3-(7-(((Z)-3-fluoro-1-methylpiperidin-4-yl)amino)-3-(2,2,2-trifluoroethyl)benzo[b]thiophen-2-yl)prop-2-yn-1-yl)amino)phenyl)dimethylphosphine oxide]: the IC50 was determined as 780 nM in the assay on NUGC3 (P53 Y220C) (Homo sapiens, NUGC-3, 144 h) and 3800 nM in the assay with NUGC4 (P53 WT) (Homo sapiens, NUGC-4, 144 h). The EC50 in assay [2] (NUGC-3, 6 h) was determined as 90 nM.

`COc1cc(P(C)(C)=O)ccc1NCC#Cc1sc2c(NC3CCN(C)CC3C(F)(F)F)cccc2c1CC(F)(F)F` (racemic) [Example 170, (3-methoxy-4-((3-(7-(((E)-1-methyl-3-(trifluoromethyl)piperidin-4-yl)amino)-3-(2,2,2-trifluoroethyl)benzo[b]thiophen-2-yl)prop-2-yn-1-yl)amino)phenyl)di methylphosphine oxide (racemic)]: in assay [1], the EC50 was determined as 76 nM. Moreover, the results for the IC50 in the assay on NUGC3 (P53 Y220C) and in the assay on NUGC4 (P53 WT) were 1640 nM and 3720 nM, respectively.

`CN1CC[C@@H](Nc2cccc3c(CC(F)(F)F)c(C#CCNc4ccc(P(C)(C)=O)cc4C(=O)NC4COC4)sc23)[C@@H](F)C1` [Example 217, 5-(dimethylphosphoryl)-2-((3-(7-(((3S,4R)-3-fluoro-1-methylpiperidin-4-yl)amino)-3-(2,2,2-trifluoroethyl)benzo[b]thiophen-2-yl)prop-2-yn-1-yl)amino)-N-(oxetan-3-yl)benzamide]: the IC50 came to 320 nM in the assay with NUGC3 (P53 Y220C) (Homo sapiens, NUGC-3, 144 h) and 15400 nM in the assay on NUGC4 (P53 WT) (Homo sapiens, NUGC-4, 144 h). For the same compound, the concentration giving a half-maximal response (EC50) in assay [2] (NUGC-3) was found to be 150 nM.

In assay [1], `COc1cc(P(=O)(C2CC2)C2CC2)ccc1NCC#Cc1sc2c(N[C@H]3CCN(C)C[C@H]3F)cccc2c1CC(F)(F)F` [Example 140, dicyclopropyl(4-((3-(7-(((3R,4S)-3-fluoro-1-methylpiperidin-4-yl)amino)-3-(2,2,2-trifluoroethyl)benzo[b]thiophen-2-yl)prop-2-yn-1-yl)amino)-3-methoxyphenyl)phosphine oxide] registered an EC50 of 129 nM.

`CCP(=O)(CC)c1ccc(NCC#Cc2sc3c(N[C@@H]4CCN(C5CCOCC5)C[C@@H]4F)cccc3c2CC(F)(F)F)c(OC)c1` [Example 156, diethyl(4-((3-(7-(((3S,4R)-3-fluoro-1-(tetrahydro-2H-pyran-4-yl)piperidin-4-yl)amino)-3-(2,2,2-trifluoroethyl)benzo[b]thiophen-2-yl)prop-2-yn-1-yl)amino)-3-methoxyphenyl)phosphine oxide] had an EC50 in assay [1] of 108 nM.

For the compound `COc1cc(C(=O)NO)ccc1NCC#Cc1sc2c(NC3CCN(C)CC3F)cccc2c1CC(F)(F)F` (centres unmarked) [Example 58, 4-((3-(7-(((Z)-3-fluoro-1-methylpiperidin-4-yl)amino)-3-(2,2,2-trifluoroethyl)benzo[b]thiophen-2-yl)prop-2-yn-1-yl)amino)-N-hydroxy-3-methoxybenzamide], it took 90 nM to reach a half-maximal effect in assay [1] (EC50).

Take `COc1cc(P(C)(C)=O)ccc1NCC#Cc1sc2c(N[C@H]3CCN(C)C[C@@H]3F)cccc2c1-c1ccc(F)cc1` (racemic) [Example 139, (4-((3-(7-(((E)-3-fluoro-1-methylpiperidin-4-yl)amino)-3-(4-fluorophenyl)benzo[b]thiophen-2-yl)prop-2-yn-1-yl)amino)-3-methoxyphenyl)dimethylphosphine oxide]: in assay [1], the EC50 worked out at 1220 nM.

Consider `COc1cc(S(C)(=O)=O)ccc1NCC#Cc1sc2c(N[C@H]3CC[C@H](N4CC5(COC5)C4)CC3)cccc2c1CC(F)(F)F` [Example 17, trans-N-(4-(2-oxa-6-azaspiro[3.3]heptan-6-yl)cyclohexyl)-2-(3-((2-methoxy-4-(methylsulfonyl)phenyl)amino)prop-1-yn-1-yl)-3-(2,2,2-trifluoroethyl)benzo[b]thiophen-7-amine], for which, in assay [1], a half-maximal response (EC50) required 72 nM.

`COc1cc(NCC#Cc2sc3c(NC4CCN(C)CC4F)cccc3c2CC(F)(F)F)ccc1P(C)(C)=O` (centres unmarked) [Example 151, (4-((3-(7-(((Z)-3-fluoro-1-methylpiperidin-4-yl)amino)-3-(2,2,2-trifluoroethyl)benzo[b]thiophen-2-yl)prop-2-yn-1-yl)amino)-2-methoxyphenyl)dimethylphosphine oxide] registered an EC50 in assay [1] of 60 nM.

On to `COc1cc(P(C)(C)=O)ccc1NCC#Cc1sc2c(NC3CCN(C)CC3F)cccc2c1-c1cncs1` (centres unmarked) [Example 116, (4-((3-(7-(((Z)-3-fluoro-1-methylpiperidin-4-yl)amino)-3-(thiazol-5-yl)benzo[b]thiophen-2-yl)prop-2-yn-1-yl)amino)-3-methoxyphenyl)dimethylphosphine oxide], for which the midpoint of the response in assay [1], the EC50, lay at 5130 nM.

Regarding `CN1CC[C@@H](Nc2cccc3c(CC(F)(F)F)c(C#CCNc4ccc(P(C)(C)=O)cc4-c4cc[nH]n4)sc23)[C@@H](F)C1` [Example 200, (4-((3-(7-(((3S,4R)-3-fluoro-1-methylpiperidin-4-yl)amino)-3-(2,2,2-trifluoroethyl)benzo[b]thiophen-2-yl)prop-2-yn-1-yl)amino)-3-(1H-pyrazol-3-yl)phenyl)dimethylphosphine oxide], the EC50 in assay [1] was determined as 25 nM; in assay [2] (NUGC-3, 6 h), 60 nM. In addition, the half-inhibitory concentration (IC50) with NUGC4 (P53 WT) (Homo sapiens, NUGC-4, 144 h) amounted to 13100 nM.

With `COc1cc(C(=O)NC2CCN(C)CC2)ccc1NCC#Cc1sc2c(NC3CCN(C)CC3F)cccc2c1CC(F)(F)F` (racemic) [Example 47, 4-((3-(7-((3-fluoro-1-methylpiperidin-4-yl)amino)-3-(2,2,2-trifluoroethyl)benzo[b]thiophen-2-yl)prop-2-yn-1-yl)amino)-3-methoxy-N-(1-methylpiperidin-4-yl)benzamide], in assay [1], the EC50 amounted to 20 nM.

In turn, `COc1cc(S(C)(=O)=O)ccc1NCC#Cc1sc2c(NC3CCN(CC(F)(F)F)CC3)cccc2c1CC(F)(F)F` [Example 37, N-(2-(3-((2-methoxy-4-(methylsulfonyl)phenyl)amino)prop-1-yn-1-yl)-3-(2,2,2-trifluoroethyl)benzo[b]thiophen-7-yl)-1-(2,2,2-trifluoroethyl)piperidin-4-amine] came in with an EC50 in assay [1] of 3880 nM.

Usually EC50 stands for the concentration needed to bring the measured effect to its halfway point. Usually IC50 stands for the concentration needed to halve the response being measured.
